Values of other authors in patent US20220241364A1, “Composition for Lowering Blood Glucose Level, Reducing Blood Hemoglobin A1c Content, or Increasing Blood HDL-Cholesterol Content” (House Wellness Foods Corporation, priority 2019, published 2022).

Conditions: in vivo

CC(C)=CC(=O)C[C@H](C)c1ccc(C)cc1 [ar turmerone]
elevation of blood sugar level: effect of inhibiting the elevation
